Values after ≈ are worked out from the molar mass of the structure shown. Values belong to the compound of their own block, whether it stands above or below them. Active and inactive are the calls of the source. The rule behind the calls is not given here.
Key:
[1] = tested on: Plasmodium falciparum; experiment: OSM: Percent inhibition of Plasmodium falciparum 3D7 growth at 40 uM. Avery Group Griffith.; assay type: functional
[2] = tested on: Plasmodium falciparum; experiment: OSM: Inhibition of Plasmodium falciparum 3D7 growth using a SYBR green I fluorescence based assay. GSK Tres Cantos.; assay type: functional, organism-based
[3] = tested on: Plasmodium falciparum; experiment: OSM: Inhibition of Plasmodium falciparum 3D7 growth using a SYBR green I fluorescence based assay. Dose response curves were generated comprising of 8 points using a 2-fold serial dilution for the maximum final concentration of 1000 nM. Ralph Group, Bio21.; assay type: functional, organism-based
[4] = tested on: Plasmodium falciparum; experiment: OSM: Percent inhibition of Plasmodium falciparum 3D7 growth at 100 uM. Avery Group Griffith.; assay type: functional
[5] = tested on: Plasmodium falciparum; experiment: OSM: Percent inhibition of Plasmodium falciparum 3D7 growth at 80 uM. Avery Group Griffith.; assay type: functional
[6] = tested on: Plasmodium berghei; experiment: OSM: Mice are infected intravenously with parasitized red blood cells on day 0 (2 x 10^7 parasitized erythrocytes per ml). Experimental mice are generally treated at 4, 24, 48, and 72 hours post-infection with an oral dose of the compound (50 mg/kg, 4-day test by Peters) and are compared to an infected control group for reduction in parasitaemia on day 4 (96 hours post-infection) as a percentage.; assay type: functional, organism-based; details: Mus musculus; Swiss; Plasma
[7] = biological target: Voltage-gated inwardly rectifying potassium channel KCNH2 (Homo sapiens, UniProt Q12809); experiment: OSM: hERG, IC50 uM (Essen Bioscience): IonWorks patch clamp electrophysiology. 8 point concentration-response curves were generated using 3-fold serial dilutions from the maximum final assay concentration of 33 uM.; assay type: functional
Sequence of Voltage-gated inwardly rectifying potassium channel KCNH2 (Q12809 whole entry): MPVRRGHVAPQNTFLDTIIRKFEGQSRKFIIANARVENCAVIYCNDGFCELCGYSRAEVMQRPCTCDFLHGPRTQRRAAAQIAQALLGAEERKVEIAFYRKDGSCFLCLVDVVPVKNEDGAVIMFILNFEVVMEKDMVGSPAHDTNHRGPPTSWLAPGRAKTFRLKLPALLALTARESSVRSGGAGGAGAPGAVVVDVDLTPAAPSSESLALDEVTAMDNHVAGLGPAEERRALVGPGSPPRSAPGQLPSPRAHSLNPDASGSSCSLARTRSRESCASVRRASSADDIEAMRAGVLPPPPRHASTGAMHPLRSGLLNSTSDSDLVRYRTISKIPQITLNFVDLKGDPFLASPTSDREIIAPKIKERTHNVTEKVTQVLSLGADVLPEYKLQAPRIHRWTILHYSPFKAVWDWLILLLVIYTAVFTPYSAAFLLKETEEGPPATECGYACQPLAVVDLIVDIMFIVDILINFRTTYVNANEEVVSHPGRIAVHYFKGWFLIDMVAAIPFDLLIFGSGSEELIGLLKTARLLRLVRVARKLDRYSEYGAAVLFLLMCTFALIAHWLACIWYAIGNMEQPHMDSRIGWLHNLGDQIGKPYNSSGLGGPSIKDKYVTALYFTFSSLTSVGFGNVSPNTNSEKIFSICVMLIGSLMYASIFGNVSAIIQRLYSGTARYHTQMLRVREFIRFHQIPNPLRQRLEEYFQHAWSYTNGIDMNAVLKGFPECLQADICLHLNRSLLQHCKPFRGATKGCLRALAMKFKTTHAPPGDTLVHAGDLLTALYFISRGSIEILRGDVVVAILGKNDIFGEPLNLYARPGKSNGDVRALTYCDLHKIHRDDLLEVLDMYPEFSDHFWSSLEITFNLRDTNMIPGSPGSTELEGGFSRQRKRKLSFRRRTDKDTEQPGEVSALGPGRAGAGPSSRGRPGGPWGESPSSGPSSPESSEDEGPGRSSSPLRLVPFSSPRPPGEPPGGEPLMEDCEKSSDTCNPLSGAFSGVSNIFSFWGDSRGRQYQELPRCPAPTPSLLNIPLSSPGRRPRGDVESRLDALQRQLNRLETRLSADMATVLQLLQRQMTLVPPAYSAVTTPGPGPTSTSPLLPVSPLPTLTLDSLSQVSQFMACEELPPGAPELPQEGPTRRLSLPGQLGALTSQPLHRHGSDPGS

[8] = tested on: Plasmodium falciparum; experiment: OSM: Inhibition of Plasmodium falciparum 3D7 growth. IC50 values determined from 21 point dose response curves. Avery Group Griffith.; assay type: functional, organism-based
[9] = tested on: Plasmodium falciparum K1; experiment: OSM: Inhibition of Plasmodium falciparum K1 growth. IC50 values determined from 21 point dose response curves. Avery Group Griffith.; assay type: functional, organism-based
[10] = tested on: Plasmodium falciparum; experiment: OSM: Late stage gametocytes. IC50 values determined from 21 point dose response curves. Avery Group Griffith.; assay type: functional, organism-based; details: Pfs16-GFP transgenic NF54
[11] = OSM: HEK293 cytotoxicity assay. IC50 values determined from 21 point dose response curves. Avery Group Griffith.; assay type: toxicity, cell-based; details: human, HEK293 cells
[12] = OSM: HEK293 cytotoxicity assay. Duplicate point single experiment at 120 uM. Avery Group, Griffith.; assay type: toxicity, cell-based; details: human, HEK293 cells; read-out: Inhibition
[13] = tested on: Plasmodium falciparum K1; experiment: OSM: CSIR assay K1: Compounds were tested for inhibition of Plasmodium falciparum growth using a SYBR green I fluorescence based assay.; assay type: functional, organism-based
[14] = OSM: Microsomal stability: 0.5 uM substrate, 0.4 mg/mL protein, NADPH cofactor). Analysed by LC/MS. In vitro CLint (uL/min/mg protein).; assay type: ADME, Microsome; details: human, microsomes
[15] = OSM: Microsomal stability: 0.5 uM substrate, 0.4 mg/mL protein, NADPH cofactor. Analysed by LC/MS. Degradation half life (min).; assay type: ADME, Microsome; details: human, microsomes
[16] = OSM: Kinetic solubility pH 2 0.01 M HCl ug/mL.; assay type: ADME
[17] = OSM: Kinetic solubility pH 6.5 isotonic phosphate buffer.; assay type: ADME
[18] = OSM: Microsomal stability: 0.5 uM substrate, 0.4 mg/mL protein, NADPH cofactor. Analysed by LC/MS. Degradation rate classification.; assay type: ADME, Microsome; details: human, microsomes
[19] = tested on: Plasmodium falciparum; experiment: OSM: CSIR assay 3D7: Compounds were tested for inhibition of Plasmodium falciparum growth using a SYBR green I fluorescence based assay.; assay type: functional, organism-based

Compound: CNC(=O)CN(C)C(=O)c1cc(C)n(-c2ccc(Br)cc2)c1C
inhibition at 40 µM [1]: 70%

Compound: O=C1N=C(Nc2ccccc2)S/C1=C\c1ccccc1
IC50 [2]: > 5000 nM | IC50 [3]: > 1000 nM | inhibition at 100 µM [4]: 100%

Compound: Cc1cc(C(=O)NCC(N)=O)c(C)n1-c1ccc(F)cc1
IC50 [2]: > 5000 nM | IC50 [3]: > 1000 nM | inhibition at 80 µM [5]: 25%

Compound: Cc1cc(C(=O)CCC(N)=O)c(C)n1-c1ccc(F)cc1
inhibition at 40 µM [1]: 61%

Compound: Cc1cc(/C=C2\SC(=Nc3ccccc3)NC2=O)c(C)n1-c1ccccc1
IC50 [2]: 36 nM | IC50 [3]: 11 nM | Reduced_parasitemia [6]: inactive | IC50 [7]: > 33000 nM | IC50 [8]: 26 nM

IC50 [10]: 0.3 nM
Compound: CC[C@H](C)[C@H](NC(=O)[C@H]([C@@H](C)CC)N(C)C(C)=O)C(=O)N[C@H](C(=O)N[C@@H](CC(C)C)C(=O)[C@@]1(C)CO1)[C@@H](C)O [EPOXOMYCIN]
IC50 [9]: 2.8 nM | IC50 [11]: 33.6 nM | IC50 [8]: 4.2 nM

Compound: COc1ccc(-c2cc3ncnc(Oc4ccc(S(=O)(=O)N5CCOCC5)cc4)c3s2)cc1
inhibition at 40 µM [1]: 80%

Compound: CCN(CC)CCCC(C)Nc1ccnc2cc(Cl)ccc12 (configuration not stated) [CHLOROQUINE]
IC50 [9]: 266 nM | cytotoxicity at 120 µM [12]: 100% | IC50 [13]: 235 nM

microsomal CLint at 0.5 µM [14]: 60 µL/min/mg | half-life at 0.5 µM [15]: 29 min | solubility kinetic [16]: 12.5 µg/mL (≈ 26.2 µM) | solubility kinetic [17]: 12.5 µg/mL (≈ 26.2 µM) | Relative metabolic rate [18]: Moderate
Compound: Cc1cc(C(=O)OCC(=O)Nc2c(C)n(C)n(-c3ccccc3)c2=O)c(C)n1-c1ccc(F)cc1
IC50 [2]: 245 nM | IC50 [9]: 152 nM | cytotoxicity at 120 µM [12]: 20% | Reduced_parasitemia [6]: inactive | IC50 [8]: 345 nM

Compound: Cc1cc(CN2CCCC2)c(C)n1-c1ccc(F)cc1
inhibition at 40 µM [1]: 96%

Compound: CCc1nc(N)nc(N)c1-c1ccc(Cl)cc1 [PYRIMETHAMINE]
IC50 [9]: 11900 nM | IC50 [11]: 13900 nM | IC50 [8]: 8.95 nM

Compound: Cc1cc(/C=C2\S/C(=N\c3ccccc3)N(c3ccccc3)C2=O)c(C)n1-c1cccc(F)c1
IC50 [13]: > 5000 nM | IC50 [19]: 3200 nM

microsomal CLint at 0.5 µM [14]: 29 µL/min/mg | half-life at 0.5 µM [15]: 59 min | solubility kinetic [16]: 50 µg/mL (≈ 172 µM) | solubility kinetic [17]: 50 µg/mL (≈ 172 µM) | Relative metabolic rate [18]: Moderate
Compound: Cc1cc(C(=O)OCC(N)=O)c(C)n1-c1ccc(F)cc1
IC50 [2]: 818 nM | IC50 [9]: 375 nM | cytotoxicity at 120 µM [12]: 20% | IC50 [13]: 641 nM | IC50 [19]: 581 nM | Reduced_parasitemia [6]: inactive | IC50 [7]: > 33000 nM | IC50 [8]: 404 nM

Compound: Cc1cc(C(=O)Nc2c(C)n(C)n(-c3ccccc3)c2=O)c(C)n1-c1ccc(F)cc1
inhibition at 80 µM [5]: 100%

Compound: Cc1c(NC(=O)CNC(=O)c2ccccc2)c(=O)n(-c2ccccc2)n1C
IC50 [2]: > 5000 nM | inhibition at 80 µM [5]: 0%

Compound: Cc1cccc(-n2c(C)cc(C(=O)N(C)CC(=O)Nc3cc(C)on3)c2C)c1
inhibition at 40 µM [1]: 85%

microsomal CLint at 0.5 µM [14]: < 7 µL/min/mg | half-life at 0.5 µM [15]: > 250 min | IC50 [10]: 4 nM | solubility kinetic [17]: 3 µg/mL (≈ 6.8 µM) | Relative metabolic rate [18]: Low
Compound: Cc1cc(/C=C2\S/C(=N\c3ccccc3)NC2=O)c(C)n1-c1ccc(C(F)(F)F)cc1
IC50 [2]: 29 nM | IC50 [3]: 205 nM | IC50 [8]: 2 nM

Reference: ChEMBL document CHEMBL2113921, “Open Source Malaria Deposition 1. http://malaria.ourexperiment.org” (2013)
